According to patent publication US12440571B2, “Immune agonists” (SHENZHEN UNIVERSITY, priority 2020, dated 2025):
Read-outs that look alike come from different tables or passages of the source.

Key:
[1] = test system: murine spleen lymphocytes; experiment: Cytokine stimulation of murine spleen lymphocytes, ELISA; format: cell-based; details: Lymphocyte, mouse immune cells (spleen lymphocytes), 24 hrs, ELISA
Procedure: The stimulating effect of a series of GY compounds or drugs on murine spleen lymphocytes was detected by ELISA.
6-week-old Balb/c mice were sacrificed by cervical dislocation, spleens were taken under aseptic conditions. A 1 mL sterile syringe and a 200 mesh cell strainer were adopted to quickly grind and disperse the spleen into individual cells in 4 mL of a murine lymphocyte separation solution (Dakko's, 7211011). A resulting cell homogenate was transferred to a 15 mL centrifuge tube, then 1 mL of a RPMI 1640 medium (Hyclone, SH30809.01) was slowly added. Spleen lymphocytes were separated by a density gradient centrifugation method (800×g, 30 min), washed, red blood cells therein were lysed, such that a dispersed spleen lymphocyte suspension was obtained. Cells were counted by a hemocytometer, to calculate the cell concentration. A RPMI 1640 complete medium was adopted to adjust the cell suspension to a concentration of 1×10^6/ml/well, and the cells were then plated on a 24-well cell culture plate (Corning, 3524).
Murine spleen lymphocytes were stimulated according to the gradient concentrations of the series of GY compounds or drugs, and incubated in a 37° C., 5% carbon dioxide incubator for 24 hrs.
• (1) Coating: a Capture antibody (primary antibody, purchased from Invitrogen) was diluted with a 1×Coating Buffer (coating buffer, purchased from Invitrogen) to a recommended concentration, and 100 μL of a resulting diluted solution was added to each well of a 96-well microtiter plate, the plate was sealed with a sealing film at 4° C. overnight. • (2) Washing: a liquid in each well was discarded, then 300 μL of a PBST working solution was added to each well and kept for 1 min, thereafter, the liquid therein was discarded. The washing process was repeated 3 times. • (3) Blocking: 200 μL of a blocking solution was added to each well. The plate was sealed with a sealing film, and placed on a shaker and incubated at room temperature for 1 hr, then washed and patted to be dry. • (4) Sample incubation: a sample was collected and centrifuged to collect a supernatant. Standards, samples, negative controls, and blank controls were provided in the 96-well microtiter plate, and each concentration or sample were provided with 2 replicates. 100 μL of a standard or sample was added to each well, thereafter, the plate was sealed with a sealing film, incubated on a shaker at room temperature for 1 hr or overnight at 4° C., then washed and pated to be dry. • (5) Secondary antibody incubation: the detection antibody (secondary antibody, purchased from Invitrogen) was diluted to a recommended concentration with a dilution buffer, 100 μL of a secondary antibody was added to each well. After being sealed with a sealing film, the plate was incubated on a shaker at room temperature for 1 hr, then washed and patted to be dry. • (6) Avidin-HRP incubation: Avidin-HRP (horseradish peroxidase marker, purchased from Invitrogen) was diluted to the recommended concentration with a dilution buffer, 100 μL of Avidin-HRP was added to each well. After being sealed with a sealing film, the plate was placed on a shaker and incubated at room temperature for 30 mins, washed 5-7 times by the process of step 2), and patted to be dry. • (7) TMB color development: 100 μL of a TMB color development solution (purchased from Invitrogen) was added to each well, for carrying out reaction for 15 mins at room temperature in the dark. • (8) Stopping reaction: 50 μL of 1M H2SO4 solution was added to each well. • (9) Reading an absorbance value by a microplate reader: the OD value at 450 nm wavelength was read. A standard curve and a parameter nonlinear regression equation were drawn, and a sample concentration was calculated according to the obtained formula.

[2] = test system: Murine breast cancer 4T1 cells; experiment: CCK8 growth inhibition, 4T1; format: cell-based; details: Mus musculus, CCK8 method, 24 hrs (or 36, 72 hrs), read-out: IC50 of inhibitory activity on tumor cell growth, 4T1
Procedure: Murine breast cancer 4T1 cells (Kailian Biotech, KG338) in a logarithmic growth phase were selected and washed with PBS, digested with 0.25% trypsin (including EDTA), stopped digestion with a DMEM complete medium, then centrifuged, and resuspended to form a suspension of 4T1 single cells. Cells were counted using a hemocytometer and a cell concentration was calculated. A DMEM complete medium was used to adjust the cell suspension to a target concentration, and thereafter, the cells were plated on a 96-well cell culture plate according to 4×10^3/100 μL per well. After adherering to the wall, the 4T1 cells were stimulated according to the designed concentration gradients of the series of GY compounds or drugs, with each concentration being provided with 3 replicate holes. The 96-well cell culture plate with 4T1 cells seeded and dosing was placed in the cell incubator, and incubated at 37° C., 5% carbon dioxide for 24 hrs (or 36, 72 hrs). After the incubation time was over, 10 μL of CCK8 reagent was added to each well and incubated for 1-2 hrs at 37° C. A full-wavelength microplate reader was adopted to test an OD value at 450 nm wavelength.
CCK8 calculation formula is as follows: • Cell survival rate (100%)=[…]/(Ac−Ab)×100% • As: Absorbance of wells containing cells, CCK8 solution, and drug solution • Ac: Absorbance of wells containing cells and CCK8 solution, and no drug solution • Ab: Absorbance of wells containing CCK8 solution, no cells, and no drug solution
Cell growth inhibition rate (%)=1−((OD value of experimental group−OD value of blank group)/(OD value of control group−OD value of blank group)×100%).

[3] = read-out: IFN-gamma EC50 of cytokine stimulating activity
[4] = read-out: IL-6 EC50 of cytokine stimulating activity
[5] = read-out: TNF-alpha EC50 of cytokine stimulating activity

Compound | EC50 [1, 3] [nM] | EC50 [1, 4] [nM] | EC50 [1, 5] [nM] | IC50 [2] [nM]
CCCCOc1nc(N)c2nc(O)n(Cc3cn(CCOCCOCCOCCNC(=S)N4CCCC(n5nc(-c6ccc(Oc7ccccc7)cc6)c6c(N)ncnc65)C4)nn3)c2n1 (stereo not drawn) [GY112] | 8300 | 314 | 914 | 1450
CCCCOc1nc(N)c2nc(O)n(Cc3cn(CCOCCOCCOCCNC(=S)Nc4cc(Nc5nccc(-c6cn(C)c7ccccc67)n5)c(OC)cc4N(C)CCN(C)C)nn3)c2n1 [GY127] | 753 | 83 | 248 | 17300
CCCCOc1nc(N)c2nc(O)n(Cc3cn(CCCCN4CCN(CCCNC(=S)N5CCCC(n6nc(-c7ccc(Oc8ccccc8)cc7)c7c(N)ncnc76)C5)CC4)nn3)c2n1 (stereo not drawn) [GY161] | 1530 | 6 | 11 | 780
